According to patent US20070092558A1, “Methods of Preparing Targeted Immunoliposomes” (priority 2005, published 2007):

What was measured:
[1] = tested on: A431 (epidermoid cancer cells); details: 0-18 μg/ml [DOX], 1-hour treatment, 72-hour incubation, FIG. 3B
[2] = tested on: MD-MBA 231 (breast cancer cells); test: cytotoxicity assay (ATPlite luminescence), 1 h treatment then 72 h incubation; details: MD-MBA 231 cells, 0-18 μg/ml [DOX], FIG. 3A

COc1cccc2c1C(=O)c1c(O)c3c(c(O)c1C2=O)C[C@@](O)(C(=O)CO)C[C@@H]3O[C@H]1C[C@H](N)[C@H](O)[C@H](C)O1 [free doxorubicin, doxorubicin]
cytotoxicity (cell viability) [1]: concentration effects on cell viability | cytotoxicity (cell viability) [2]: concentration effects on cell viability
